Experiment: RP, Waters ACQUITY UPLC HSS T3, 150 × 2.1 mm, 1.8 µm, 40 °C, 0.28 mL/min, estimated dead time 1.2 min; A: water + 0.1% formic acid; B: methanol + 0.1% formic acid; gradient (min/%B) 0/0 1/0 3/10 18/40 21/100 25.5/100
Settings: stereoisomer not certain

| LC retention time [min] | Compound |
| --- | --- |
| 20.3 | COc1cc(-c2[o+]c3cc(O)cc(O)c3cc2OC2OC(COC(=O)C=Cc3ccc(O)cc3)C(O)C(O)C2O)cc(OC)c1O (stereo not drawn) |
| 20.2 | O=C(O)C1OC(Oc2c(-c3ccc(O)cc3)oc3cc(O)cc(O)c3c2=O)C(O)C(O)C1O (stereo not drawn) |
| 21.3 | COc1cc(-c2oc3cc(O)cc(O)c3c(=O)c2O)cc(OC)c1O |
| 7.04 | CC(C)(CO)C(O)C(=O)NCCC(=O)O (stereo not drawn) |
| 16.6 | O=C(O)C1OC(Oc2c(-c3cc(O)c(O)c(O)c3)oc3cc(O)cc(O)c3c2=O)C(O)C(O)C1O (stereo not drawn) |
| 14.6 | COc1cc(-c2[o+]c3cc(O)cc(O)c3cc2OC2OC(CO)C(O)C(O)C2O)ccc1O (stereo not drawn) |
| 8.26 | NC(Cc1c[nH]c2ccccc12)C(=O)O (stereo not drawn) |
| 20.7 | CCOC(=O)C=Cc1ccc(O)c(O)c1 |
| 19.6 | COc1cc(-c2oc3cc(O)cc(O)c3c(=O)c2OC2OC(CO)C(O)C(O)C2O)cc(O)c1O (stereo not drawn) |
| 20.4 | Oc1ccc(C=Cc2cc(O)cc(O)c2)cc1 |
| 4.21 | CC(C)CC(N)C(=O)O (stereo not drawn) |
| 18.6 | COc1cc(-c2oc3cc(=O)cc4oc(O)c(C=[OH+])c(c2OC2OC(CO)C(O)C(O)C2O)c43)cc(OC)c1O (stereo not drawn) |
| 21.2 | O=c1c(O)c(-c2ccc(O)cc2)oc2cc(O)cc(O)c12 |
| 5.95 | NC(Cc1ccccc1)C(=O)O (stereo not drawn) |
| 14.2 | CCOC(=O)c1cc(O)c(O)c(O)c1 |
| 10.9 | COc1cc(C=CC(=O)OC(C(=O)O)C(O)C(=O)O)ccc1O (stereo not drawn) |
| 14.4 | O=C(OC1Cc2c(O)cc(O)cc2OC1c1ccc(O)c(O)c1)c1cc(O)c(O)c(O)c1 (stereo not drawn) |
| 20.2 | O=c1cc2oc(-c3ccc(O)c(O)c3)c(OC3OC(COC(=[OH+])C=Cc4ccc(O)cc4)C(O)C(O)C3O)cc-2c(O)c1 (stereo not drawn) |
| 6.83 | O=C(O)c1cc(O)c(O)c(O)c1 |
| 20.4 | COc1cc(-c2oc3cc(O)cc(O)c3c(=O)c2OC2OC(CO)C(O)C(O)C2O)cc(OC)c1O (stereo not drawn) |
| 18.1 | CC(=O)OCC1OC(Oc2cc3c(O)cc(O)cc3[o+]c2-c2ccc(O)c(O)c2)C(O)C(O)C1O (stereo not drawn) |
| 19 | O=C1c2c(O)cc(O)cc2OC(c2ccc(O)c(OC3OC(C(=O)O)C(O)C(O)C3O)c2)C1O (stereo not drawn) |
| 20 | O=C(C=Cc1ccc(O)cc1)OCC1OC(Oc2cc3c(O)cc(O)cc3[o+]c2-c2cc(O)c(O)c(O)c2)C(O)C(O)C1O (stereo not drawn) |
| 20.4 | COc1cc(-c2[o+]c3cc(O)cc(O)c3cc2OC2OC(COC(=O)C=Cc3ccc(O)cc3)C(O)C(O)C2O)ccc1O (stereo not drawn) |
| 20.8 | O=c1c(O)c(-c2ccc(O)c(O)c2)oc2cc(O)cc(O)c12 |
| 4.05 | NC(Cc1ccc(O)cc1)C(=O)O (stereo not drawn) |
| 11.3 | OCC1OC(Oc2cc3c(O)cc(O)cc3[o+]c2-c2cc(O)c(O)c(O)c2)C(O)C(O)C1O (stereo not drawn) |

| LC retention time [min] | Compound |
| --- | --- |
| 13.3 | COc1cc(-c2[o+]c3cc(O)cc(O)c3cc2OC2OC(CO)C(O)C(O)C2O)cc(O)c1O (stereo not drawn) |
| 18.4 | COc1cc(-c2[o+]c3cc(O)cc(O)c3cc2OC2OC(COC(C)=O)C(O)C(O)C2O)cc(O)c1O (stereo not drawn) |
| 2.46 | NC(CCC(=O)NC(CS)C(=O)NCC(=O)O)C(=O)O (stereo not drawn) |
| 19.6 | COc1cc(-c2[o+]c3cc(O)cc(O)c3cc2OC2OC(COC(C)=O)C(O)C(O)C2O)cc(OC)c1O (stereo not drawn) |
| 20.6 | CC(C=CC1(O)C(C)=CC(=O)CC1(C)C)=CC(=O)O (stereo not drawn) |
| 20.3 | COc1cc(-c2oc3cc(O)cc(O)c3c(=O)c2OC2OC(CO)C(O)C(O)C2O)ccc1O (stereo not drawn) |
| 20.9 | COc1cc(-c2oc3cc(O)cc(O)c3c(=O)c2O)cc(O)c1O |
| 17.7 | COc1cc(-c2oc3cc(=[OH+])cc4occc(c2OC2OC(CO)C(O)C(O)C2O)c43)cc(OC)c1O (stereo not drawn) |
| 19.5 | COc1cc(-c2[o+]c3cc(O)cc(O)c3cc2OC2OC(COC(C)=O)C(O)C(O)C2O)ccc1O (stereo not drawn) |
| 18.6 | O=C1c2c(O)cc(O)cc2OC(c2ccc(O)cc2)C1O (stereo not drawn) |
| 17 | O=c1c(OC2OC(CO)C(O)C(O)C2O)c(-c2cc(O)c(O)c(O)c2)oc2cc(O)cc(O)c12 (stereo not drawn) |
| 16.9 | CC(=O)OCC1OC(Oc2cc3c(O)cc(O)cc3[o+]c2-c2cc(O)c(O)c(O)c2)C(O)C(O)C1O (stereo not drawn) |
| 10.5 | O=S(=O)(O)c1[nH]c2ccccc2c1CCO |
| 2.07 | CC(C)C(N)C(=O)O (stereo not drawn) |
| 15.2 | O=C(OC1Cc2c(O)cc(O)cc2OC1c1cc(O)c(O)c(O)c1)c1cc(O)c(O)c(O)c1 (stereo not drawn) |
| 15.3 | O=C(O)C(O)Cc1c[nH]c2ccccc12 (stereo not drawn) |
| 1.49 | O=C(O)C1CCCN1 (stereo not drawn) |
| 20.2 | O=c1c(OC2OC(CO)C(O)C(O)C2O)c(-c2ccc(O)cc2)oc2cc(O)cc(O)c12 (stereo not drawn) |
| 14.8 | COc1cc(-c2[o+]c3cc(O)cc(O)c3cc2OC2OC(CO)C(O)C(O)C2O)cc(OC)c1O (stereo not drawn) |
| 8.34 | Oc1cc(O)c2c(c1)OC1(c3ccc(O)c(O)c3)Oc3cc(O)c4c(c3C2C1O)OC(c1ccc(O)c(O)c1)C(O)C4 (stereo not drawn) |
| 19.8 | O=c1oc2c(O)c(O)cc3c(=O)oc4c(O)c(O)cc1c4c23 |
| 20.2 | COc1cc(-c2[o+]c3cc(O)cc(O)c3cc2OC2OC(COC(=O)C=Cc3ccc(O)cc3)C(O)C(O)C2O)cc(O)c1O (stereo not drawn) |
| 21.2 | COc1cc(-c2oc3cc(O)cc(O)c3c(=O)c2O)ccc1O |
| 14.6 | Cc1cc2nc3c(=O)[nH]c(=O)nc-3n(CC(O)C(O)C(O)CO)c2cc1C (stereo not drawn) |
| 7.71 | O=C(C=Cc1ccc(O)c(O)c1)OC(C(=O)O)C(O)C(=O)O (stereo not drawn) |
| 3.94 | O=c1[nH]c(=O)c2[nH]cnc2[nH]1 |

— the RepoRT retention time repository (doi:10.1021/acs.jafc.0c00879)
